In US8853276B2, “Guanidine derivatives in cinnamic series” (Produits Chimiques Auxiliaires et de Synthese, priority 2010, dated 2014):

System: fibrillin-1
Test: Anti-glycation study on skin explants: fibrillin-1 immunolabeling with image analysis
Type: cell-based, human
Settings: for Fibrillin-1 (% of surface area under the dermo-epidermal junction), Mean: topical 2 mg per explant on D0, D3, D5, D7, aminoguanidine at 0.15%, compound 29 at 1%
Procedure: The anti-aging properties of a derivative according to the invention were evaluated by performing a comparative study of the anti-glycation activity of several compounds.
From an arm of a person, 21 explants (about 10 mm in diameter) were prepared and placed under survival conditions in BEM specific medium (BIO-EC's Explants Medium).
The explants were divided into seven batches of three explants:
Methylglyoxal was incorporated into the survival medium on D3, D5 and D7.
Compound 29 and the reference, aminoguanidine, were applied topically at a rate of 2 mg per explant on D0, D3, D5 and D7.
The controls (batches T0 and T) received no treatment.
On D0, the three explants of batch T0 were sampled and divided into two. One half was fixed with buffered formaldehyde and the other half was frozen at −80° C. On D9, three explants from each batch were sampled and treated in the same manner.
After 24 hours of fixing in the buffered formaldehyde, the samples were dehydrated and impregnated with paraffin using a Leica 1020 dehydration robot. They were embedded using a Leica EG 1160 coating station. 5 μm slices were produced using a Minot Leica RM 2125 microtome and bonded to Superfrost® histological glass slides.
The nuclei were stained with propidium iodide. The labeling was quantified by image analysis measurements with the Q-WIN Leica system.

[1] = D9 with methylglyoxal (in survival medium D3, D5, D7)
[2] = D9 with methylglyoxal, relative to the control batch T without methylglyoxal

For `COc1cc(/C=C/C(=O)NNC(=N)N)ccc1O` [Compound 29, imino{2-[(2E)-3-(4-hydroxy-3-methoxyphenyl)prop-2-enoyl]hydrazino}methanaminium nitrate], the “Fibrillin-1 (% of surface area under the dermo-epidermal junction), Mean” value [1] was 27.7%, the “increase in the percentage of surface area occupied by fibrillin-1 under the dermo-epidermal junction” value [2] was 17% and the “Fibrillin-1 (% of surface area under the dermo-epidermal junction), Mean” value (D9 without methylglyoxal) was 21.53%.

With `N=C(N)NN` [aminoguanidine, Aminoguanidine] the “reduction of the methylglyoxal-induced decrease in the expression of fibrillin-1” value (D9, treatment in the presence of methylglyoxal) was 49%, the “expression of fibrillin-1 (labeling, observation)” value (D9 in the presence of methylglyoxal, compared with control batch T MG) was “very sharp and greater than that observed on the control batch T MG with methylglyoxal” and the “Fibrillin-1 (% of surface area under the dermo-epidermal junction), Mean” value [1] was 21.0%. For the same compound, the “decrease in the percentage of surface area occupied by fibrillin-1 under the dermo-epidermal junction” value [2] was 12% and the “Fibrillin-1 (% of surface area under the dermo-epidermal junction), Mean” value (D9 without methylglyoxal) was 28.3%.

For `CC(=O)C=O` [methylglyoxal, Methylglyoxal], the “decrease in the percentage of surface area occupied by fibrillin-1 under the dermo-epidermal junction” value [2] was 23%.
